Publication PMC8834506, “Optimization of Thymidine Kinase-Based Safety Switch for Neural Cell Therapy” (Cells, 2022)
pEC50: −log10 of the molar value. Entries after “also recorded” stand apart in the source; their conditions may differ. Read-outs that look alike come from different tables or passages of the source.

Assays:
[1] = test system: hESC (HS420) expressing Ki67-SR39h; test: ATP-based cell survival assay, nucleoside-induced cell death; settings: for pEC50: SR39h under Ki67 promoter
[2] = test system: non-transduced hESC colonies; test: Morphology and size of hESC colonies upon nucleoside treatment; type: cell-based, human
Excerpt: We next investigated the impact of ACV, PCV, and GCV on non-transduced hESC and neuroprogenitors (proliferating ReNcells). […] To further understand the impact of nucleoside analogs on non-transduced cells, we performed γ-H2A.X immunostaining (Figure 6B). There was a graded response, virtually identical in hESC and in neuroprogenitors. […] In addition, we investigated the morphology and size of non-transduced hESC colonies upon nucleoside treatment. […] Taken together, our findings confirm considerable toxicity of GCV, even in the absence of viral TK. Note that this was not the case for PCV despite the fact that it is a potent inducer of cell death in thymidine kinase-expressing cells.
(§1) Cells were exposed to 100 µM of the respective nucleoside for 48 h. DNA damage was monitored using γ-H2A.X marker in yellow and nuclei were counterstained with Hoechst. The white box in the first column indicates the area of the zoom for the hESC colonies.

host cell DNA = settings: cited from earlier work
[3] = type: in vivo, NOD/SCID mice; settings: 40 mg/kg/day i.p.; weighed daily during treatment
Procedure: (§2) Given the encouraging in vitro results, we next investigated whether this newly developed safety switch system (SR39h and different nucleoside analogs) could prevent tumor formation in vivo. For this purpose, 20,000 undifferentiated Ki67-SR39h-expressing hESC were transplanted into the striatum of NOD/SCID mice. […] A group of control mice received only a NaCl solution. […] Human cytoplasmic marker (HCM) staining confirmed the human (i.e., hESC-derived) origin of these tumors. Tumors cells were predominantly Ki67 positive with a rosette organization as frequently found in tumors of the central nervous system.
Supplementary Figure S3: Mice weight
Mice were weighed daily during guanosine analogs treatment to identify differences in weight gain/loss between treated groups. No differences were observed between treatment groups.
Supplementary Figure S4: in vivo validation of suicide gene. Coronal section of NOD/SCID mice 47 days after injection of hESC expressing the SR39h thymidine kinase variant. Mice were treated for 2x5 days with the respective nucleoside analogs (see Methods). Upper lane: ACV; middle lane: PCV; lower lane: GCV. Sections were colored with cresyl violet and dark purple staining reflects a high density of nuclei. Scale bar 1000 µm. […]

non-transduced hESC = type: cell-based; settings: 96 h nucleoside exposure; up to 100 µM
Procedure: as §1
Plates were washed twice with DMEM-F12 (Gibco, ThermoFisher; Geneva, Switzerland), then coated with Matrigel (Corning, Lonay, Switzerland) 1/100 in DMEM-F12 and incubate 2 h at 37°. Cells were detached using Accutase and seeded at 2000 cells/well in serum-free culture medium containing 10 µM of ROCK inhibitor. At 24 h, the cell culture was continued without ROCK inhibitor. […] Drugs were prepared by serial dilution (two-fold) in 100% DMSO. At 48 h after seeding, cells were exposed to antiviral drugs for 96 h. For EC50 assays, the medium was changed daily for 4 days, then cell viability was assessed using an ATP-based assay. EC50 values for each construct were calculated using a four parameters equation (GraphPad, Prism8, San Diego, CA, USA). The same procedure was used for the cell death kinetic determinations except the treatment duration. Luminescence was measured using Spectra L384/L96 (0.2 sec exposure, Molecular devices, Biberach an der Riß, Germany).

[4] = test system: Ki67-SR39h-expressing hESC transplanted into the striatum; test: In vivo prevention of tumor formation after striatal transplantation; parameters: species or system NOD/SCID mice; settings: 40 mg/kg/day i.p., 47 days post-transplantation
Procedure: as §2
Figure 7 in vivo validation of suicide gene and inducers. (A) Schematic diagram of the experimental setup to detect tumor elimination in vivo. NOD/SCID mice were transplanted with 20,000 SR39h-expressing hESC through stereotactic injection into the striatum. 48 h post transplantation, mice were intraperitoneally injected with the respective nucleoside (40 mg/kg) for five consecutive days a week during a two-week period. Control mice were treated with a NaCl solution. Mice were sacrificed 47 days post transplantation. (B) Cresyl violet staining of a brain section. […] (C) Immunostaining of brain coronal section (sections from ACV-, PCV-, and GCV-treated mice are shown in the upper, middle, and lower row, respectively). Staining with the proliferation marker Ki67 and with the human cytoplasmic marker (HCM) are shown in red and green, respectively. Nuclei were counterstained with DAPI (blue). White arrows show residual proliferative cells form the graft. A merge of the three staining is shown in the right column. Each experimental group consisted of five mice.
Single cell transplant: Undifferentiated HS420 (expressing TK variants) were detached by TrypLE and concentrated at 20,000 cells/μL in Stemflex. 20,000 cells (1 μL) were injected into the right striatum using a 26-G Hamilton syringe (Hamilton, BGB Analytik AG, Boeckten, Switzerland). Injection coordinates for striatum were: bregma = 0.6 mm, mediolateral = 2 mm, dorsoventral = 3 mm.
Thirty days after termination of treatment with the respective antiviral nucleoside analogs or control (NaCl), mice were sacrificed by intracardiac perfusion of paraformaldehyde 4% in PBS. Brains were removed from the skull and post-fixed in the same fixative overnight.
Paraffin embedded brains were sectioned (coronal sections 7 µm thick) and processed for hematoxylin and eosin or cresyl violet staining stain aiming morphological assessment of the graft. Sections were mounted in Eukitt (Kindler GmbH, Germany) and observed under microscope (see below)
The primary antibody diluted in PBS with 0.3% Triton was incubated at 4 °C overnight in agitation. […]

[5] = test system: sister chromatid exchange; parameters: method as in PMID 10719044; settings: at concentrations far below those impairing the proliferative activity; cited from earlier work
[6] = Homo sapiens, 96 h, read-out: EC50 (cell survival), 96 h nucleoside exposure

Row | SMILES | Cell death induction in SR39h-expressing cells (in words) ([1]; 96 h nucleoside exposure) | pEC50 [1, 6] | Effect on morphology and size of colonies [2] | Fragmentation of host cell DNA (host cell DNA) | Differences in weight among groups [3] | Toxicity in non-transduced hESC (non-transduced hESC) | Tumor formation ([4]; five consecutive days a week for two weeks, from 2 days after transplantation, five mice per group) | Mice with a small nuclei-rich region at the graft site ([4]; cresyl violet staining) | Induction of sister chromatid exchange [5] | pEC50 ([1]; read-out: EC50 (cell survival), 96 h nucleoside exposure)
1 | Nc1nc2c(ncn2COCCO)c(=O)[nH]1 [ACV, acyclovir] | induced only very little cytotoxicity | 5.54 | did not observe an effect | no fragmentation of host cell DNA | no significant differences in weight | – | – | – | – | –
2 | O=c1[nH]c(=O)n([C@H]2C[C@H](O)[C@@H](CO)O2)cc1/C=C/Br [BRVD, brivudine] | induced only very little cytotoxicity | ~4.22 | – | – | – | – | – | – | – | –
3 | CC(=O)OCC(CCn1cnc2cnc(N)nc21)COC(C)=O [FAM, famciclovir] | did not show any toxic effects; also recorded: did not show any activity | < 4.00 | – | – | – | – | – | – | – | –
4 | Nc1nc2c(ncn2CCC(CO)CO)c(=O)[nH]1 [PCV, penciclovir] | strong suicide inducers | 8.62 | did not observe an effect | induce fragmentation of host cell DNA | no significant differences in weight | did not observe toxicity | prevented tumor formation; also recorded: no major tumors; also recorded: impressive anti-tumor activities | small nucleus-rich region in one of the PCV-treated mice; also recorded: one out of five | not | –
5 | CC(C)[C@H](N)C(=O)OCC(CO)OCn1cnc2c(=O)nc(N)[nH]c21 (stereo partly drawn) [Val-GCV, valganciclovir] | relatively weak, but clearly discernible activity | 7.51 | – | – | – | – | – | – | – | 7.49
